Consider 40 compounds from US12685312B2, “Sulfonamide apyrase inhibitors” (Texas Crop Science, Inc., priority 2022, dated 2026).

The test has as its system apyrase. The experiment in a line: Screen for apyrase inhibitors (Method 1, in vitro phosphate-release absorbance assay). It is filed as biochemical. Conditions: inhibitor conc at 1 mM stock, 1 hr room temperature, absorbance 630 nm; rounded average of two assay results. In short, it runs like this:
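Phosphate-release colorimetric assay (Windsor method) in 60 mM Hepes, 3 mM MgCl2, 3 mM CaCl2, 3 mM ATP, pH 6.5, with compound or DMSO control added. Released phosphate developed with ammonium molybdate and ascorbic acid/TCA, then stopped with citrate/acetic acid.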
On to `O=C(Nc1cccc2ncccc12)c1cccc(NS(=O)(=O)c2cccs2)c1` [I-638, N-(quinolin-5-yl)-3-(thiophene-2-sulfonamido)benzamide], for which the “% Inhibition of Apyrase” value came to 57%.

As to `C#Cc1cccc(NC(=O)c2ccccc2S(=O)(=O)N(C)c2ccccc2)c1` [I-352, N-(3-ethynylphenyl)-2-(N-methyl-N-phenylsulfamoyl)benzamide], the “% Inhibition of Apyrase” value is on record as 48%.

Regarding `O=C(Nc1cccc([N+](=O)[O-])c1)c1cc(S(=O)(=O)Nc2cccc(F)c2)ccc1Cl` [I-11, 2-chloro-5-(N-(3-fluorophenyl)sulfamoyl)-N-(3-nitrophenyl)benzamide], the “% Inhibition of Apyrase” value was 60%.

Consider `Cc1ccccc1NS(=O)(=O)c1ccc(C(=O)Nc2ccc(Cl)cc2)cc1` [I-411, N-(4-chlorophenyl)-4-(N-(o-tolyl)sulfamoyl)benzamide], for which the “% Inhibition of Apyrase” value amounted to 21%.

`COc1ccc(S(=O)(=O)N2CCc3ccccc32)cc1C(=O)Nc1cc(C(F)(F)F)cc(C(F)(F)F)c1` [I-447, N-(3,5-bis(trifluoromethyl)phenyl)-5-(indolin-1-ylsulfonyl)-2-methoxybenzamide]: the “% Inhibition of Apyrase” value was found to be 61%.

With `CSc1cccc(NC(=O)c2cccc(S(=O)(=O)Nc3ccc4c(c3)OCO4)c2)c1` [I-248, 3-(N-(benzo[d][1,3]dioxol-5-yl)sulfamoyl)-N-(3-(methylthio)phenyl)benzamide], the “% Inhibition of Apyrase” value is on record as 64%.

On to `O=C(c1cccc(S(=O)(=O)Nc2cccc(C(F)(F)F)c2)c1)N1CCc2ccccc21` [I-475, 3-(indoline-1-carbonyl)-N-(3-(trifluoromethyl)phenyl)benzenesulfonamide], for which the “% Inhibition of Apyrase” value stood at 59%.

As for `O=C(c1ccc(Cl)c(S(=O)(=O)N2CCc3ccccc32)c1)N1CCc2cc([N+](=O)[O-])ccc21` [I-495, (4-chloro-3-(indolin-1-ylsulfonyl)phenyl)(5-nitroindolin-1-yl)methanone], the “% Inhibition of Apyrase” value turned out to be 57%.

As to `Cc1cc(C(=O)Nc2cccc(S(=O)(=O)Nc3ccc(Br)cc3)c2)ccc1[N+](=O)[O-]` [I-182, N-(3-(N-(4-bromophenyl)sulfamoyl)phenyl)-3-methyl-4-nitrobenzamide], the “% Inhibition of Apyrase” value was 68%.

Turning to `Cc1ccc(C(=O)Nc2cccc(NS(=O)(=O)c3ccccc3)c2)cc1C` [I-184, 3,4-dimethyl-N-(3-(phenylsulfonamido)phenyl)benzamide], the “% Inhibition of Apyrase” value was 81%.

`O=C(Nc1cnccn1)c1cccc(NS(=O)(=O)c2ccccc2)c1` [I-670, 3-(phenylsulfonamido)-N-(pyrazin-2-yl)benzamide]: the “% Inhibition of Apyrase” value came out at 6%.

In the case of `CCc1cccc(NC(=O)c2ccc(S(=O)(=O)Nc3ccc(Cl)cc3)cc2)c1` [I-395, 4-(N-(4-chlorophenyl)sulfamoyl)-N-(3-ethylphenyl)benzamide], the “% Inhibition of Apyrase” value worked out at 51%.

With `COc1ccccc1N(C)S(=O)(=O)c1ccc(C(=O)N2CCc3ccccc32)cc1` [I-870, 4-(indoline-1-carbonyl)-N-(2-methoxyphenyl)-N-methylbenzenesulfonamide], the “% Inhibition of Apyrase” value is on record as 57%.

In the case of `COc1ccc(NS(=O)(=O)c2cc(C)ccc2NC(=O)c2cc(C)oc2C)cc1` [I-818, N-(2-(N-(4-methoxyphenyl)sulfamoyl)-4-methylphenyl)-2,5-dimethylfuran-3-carboxamide], the “% Inhibition of Apyrase” value amounted to 60%.

With `CCOc1ccc(NS(=O)(=O)c2cccc(C(=O)Nc3ccc(OC)cc3)c2)cc1` [I-614, 3-(N-(4-ethoxyphenyl)sulfamoyl)-N-(4-methoxyphenyl)benzamide], the “% Inhibition of Apyrase” value is on record as 1%.

Take `O=C(NC1CCCc2ccccc21)c1cccc(S(=O)(=O)Nc2ccc(Br)cc2)c1` (stereo not shown) [I-244, 3-(N-(4-bromophenyl)sulfamoyl)-N-(1,2,3,4-tetrahydronaphthalen-1-yl)benzamide]: the “% Inhibition of Apyrase” value amounted to 68%.

On to `CC1Cc2ccccc2N1S(=O)(=O)c1cccc(C(=O)Nc2ccc(F)c([N+](=O)[O-])c2)c1` (stereo not shown) [I-242, N-(4-fluoro-3-nitrophenyl)-3-((2-methylindolin-1-yl)sulfonyl)benzamide], for which the “% Inhibition of Apyrase” value is recorded as 69%.

Consider `COc1ccc(NC(=O)c2ccc(NS(=O)(=O)c3ccc(F)cc3)cc2)cc1OC` [I-958, N-(3,4-dimethoxyphenyl)-4-((4-fluorophenyl)sulfonamido)benzamide], for which the “% Inhibition of Apyrase” value came to 19%.

In the case of `CCOc1ccc(Br)cc1S(=O)(=O)Nc1ccc(NC(=O)c2ccccc2F)cc1` [I-1004, N-(4-((5-bromo-2-ethoxyphenyl)sulfonamido)phenyl)-2-fluorobenzamide], the “% Inhibition of Apyrase” value turned out to be 46%.

As to `O=C(NC12CC3CC(CC(C3)C1)C2)c1cccc(S(=O)(=O)Nc2ccc(Br)cc2)c1` [I-240, N-(adamantan-1-yl)-3-(N-(4-bromophenyl)sulfamoyl)benzamide], the “% Inhibition of Apyrase” value was found to be 71%.

In the case of `COc1ccc(NS(=O)(=O)c2cccc(NC(=O)c3ccc(Cl)nc3)c2)cc1` [I-714, 6-chloro-N-(3-(N-(4-methoxyphenyl)sulfamoyl)phenyl) nicotinamide], the “% Inhibition of Apyrase” value was found to be 58%.

For the compound `O=C(Nc1cccc(S(=O)(=O)Nc2cccc(C(F)(F)F)c2)c1)c1ccco1` [I-759, N-(3-(N-(3-(trifluoromethyl)phenyl)sulfamoyl)phenyl) furan-2-carboxamide], the “% Inhibition of Apyrase” value turned out to be 28%.

For the compound `COc1ccccc1C(=O)Nc1ccc(S(=O)(=O)Nc2ccc(Cl)cc2)cc1` [I-978, N-(4-(N-(4-chlorophenyl)sulfamoyl)phenyl)-2-methoxybenzamide], the “% Inhibition of Apyrase” value worked out at 59%.

As for `O=C(Nc1cccc(S(=O)(=O)Nc2ccc(Cl)cc2)c1)c1ccsc1` [I-717, N-(3-(N-(4-chlorophenyl)sulfamoyl)phenyl)thiophene-3-carboxamide], the “% Inhibition of Apyrase” value worked out at 58%.

As to `CN(c1ccccc1)S(=O)(=O)c1ccc(C(=O)N2CC(=O)Nc3ccccc32)cc1` [I-890, N-methyl-4-(3-oxo-1,2,3,4-tetrahydroquinoxaline-1-carbonyl)-N-phenylbenzenesulfonamide], the “% Inhibition of Apyrase” value is reported as 32%.

For `CC1Cc2ccccc2N1S(=O)(=O)c1cccc(C(=O)Nc2cccc(S(=O)(=O)N(C)C)c2)c1` (stereo not shown) [I-556, N-(3-(N,N-dimethylsulfamoyl)phenyl)-3-((2-methylindolin-1-yl)sulfonyl)benzamide], the “% Inhibition of Apyrase” value is listed as 52%.

Consider `Cc1nc2cc(NC(=O)c3cccc(S(=O)(=O)Nc4ccc(Br)cc4)c3)ccc2o1` [I-256, 3-(N-(4-bromophenyl)sulfamoyl)-N-(2-methylbenzo[d]oxazol-5-yl)benzamide], for which the “% Inhibition of Apyrase” value was 61%.

Take `O=C(Nc1nccs1)c1cccc(NS(=O)(=O)c2cc(Cl)ccc2Cl)c1` [I-639, 3-((2,5-dichlorophenyl)sulfonamido)-N-(thiazol-2-yl)benzamide]: the “% Inhibition of Apyrase” value was 56%.

In the case of `O=C(Nc1ccc2c(c1)OCO2)c1ccc(S(=O)(=O)Nc2ccccc2F)cc1` [I-401, N-(benzo[d][1,3]dioxol-5-yl)-4-(N-(2-fluorophenyl)sulfamoyl)benzamide], the “% Inhibition of Apyrase” value is given as 41%.

In the case of `Cc1ccc(NS(=O)(=O)c2cccc(C(=O)Nc3cccc(S(N)(=O)=O)c3)c2)cc1` [I-1008, N-(3-sulfamoylphenyl)-3-(N-(p-tolyl)sulfamoyl)benzamide], the “% Inhibition of Apyrase” value is reported as 29%.

Turning to `O=C(c1ccc(NS(=O)(=O)c2ccc(Cl)c([N+](=O)[O-])c2)cc1)N1CCCc2ccccc21` [I-930, 4-chloro-3-nitro-N-(4-(1,2,3,4-tetrahydroquinoline-1-carbonyl)phenyl)benzenesulfonamide], the “% Inhibition of Apyrase” value is recorded as 55%.

In the case of `Cc1ccc([N+](=O)[O-])cc1NC(=O)c1ccc(Cl)c(S(=O)(=O)Nc2cccc(C)c2C)c1` [I-25, 4-chloro-3-(N-(2,3-dimethylphenyl)sulfamoyl)-N-(2-methyl-5-nitrophenyl)benzamide], the “% Inhibition of Apyrase” value is reported as 28%.

With `O=C(Nc1cccc(S(=O)(=O)Nc2ccccc2)c1)c1cccc(Cl)n1` [I-729, 6-chloro-N-(3-(N-phenylsulfamoyl)phenyl)picolinamide], the “% Inhibition of Apyrase” value was found to be 56%.

Regarding `CC1CCc2c(sc(NC(=O)c3cccc(S(=O)(=O)Nc4ccccc4Cl)c3)c2C#N)C1` (stereo not shown) [I-437, 3-(N-(2-chlorophenyl)sulfamoyl)-N-(3-cyano-6-methyl-4,5,6,7-tetrahydrobenzo[b]thiophen-2-yl)benzamide], the “% Inhibition of Apyrase” value is 64%.

For the compound `Cc1ccc(S(=O)(=O)Nc2ccccc2F)cc1C(=O)Nc1ccc(F)cc1F` [I-611, N-(2,4-difluorophenyl)-5-(N-(2-fluorophenyl)sulfamoyl)-2-methylbenzamide], the “% Inhibition of Apyrase” value came to 4%.

For the compound `O=C(Nc1cc2c(cc1Cl)OCO2)c1ccc(Cl)c(S(=O)(=O)N2CCc3ccccc32)c1` [I-496, 4-chloro-N-(6-chlorobenzo[d][1,3]dioxol-5-yl)-3-(indolin-1-ylsulfonyl)benzamide], the “% Inhibition of Apyrase” value was determined as 57%.

On to `Cc1ccc(F)c(NC(=O)c2cccc(S(=O)(=O)N3c4ccccc4CC3C)c2)c1` (stereo not shown) [I-497, N-(2-fluoro-5-methylphenyl)-3-((2-methylindolin-1-yl)sulfonyl)benzamide], for which the “% Inhibition of Apyrase” value was determined as 57%.

Take `N#Cc1cccc(NC(=O)c2ccc(NS(=O)(=O)c3ccc(Br)cc3)cc2)c1` [I-928, 4-((4-bromophenyl)sulfonamido)-N-(3-cyanophenyl)benzamide]: the “% Inhibition of Apyrase” value is 56%.

Turning to `CC(C)n1ncc2cc(NC(=O)c3cccc(S(=O)(=O)Nc4ccc5c(c4)OCO5)c3)cnc21` [I-553, 3-(N-(benzo[d][1,3]dioxol-5-yl)sulfamoyl)-N-(1-isopropyl-1H-pyrazolo[3,4-b]pyridin-5-yl)benzamide], the “% Inhibition of Apyrase” value was found to be 52%.

Regarding `COc1ccc(NC(=O)c2ccc(Cl)c(S(=O)(=O)N3CCc4ccccc43)c2)cc1OC` [I-588, 4-chloro-N-(3,4-dimethoxyphenyl)-3-(indolin-1-ylsulfonyl)benzamide], the “% Inhibition of Apyrase” value stood at 43%.
